Data set [1] concerns PC-3. The data set is described as follows: Upregulation of acetyl-tubulin in human PC-3 cells at 0.625 to 5 uM by Western blot analysis. Type of data set: functional, cell-based. The conditions noted are these: dose 0.625-5 µM.
Data set [2] has as its system PC-3. In words: Antiproliferative activity against human PC-3 cells assessed as cell growth inhibition at upto 10 uM incubated for 48 hrs by MTT assay. Type of data set: functional, cell-based.
The target of the next data set is T1, Histone deacetylase 7 (Homo sapiens, UniProt Q8WUI4).
T1 sequence (Q8WUI4 whole entry): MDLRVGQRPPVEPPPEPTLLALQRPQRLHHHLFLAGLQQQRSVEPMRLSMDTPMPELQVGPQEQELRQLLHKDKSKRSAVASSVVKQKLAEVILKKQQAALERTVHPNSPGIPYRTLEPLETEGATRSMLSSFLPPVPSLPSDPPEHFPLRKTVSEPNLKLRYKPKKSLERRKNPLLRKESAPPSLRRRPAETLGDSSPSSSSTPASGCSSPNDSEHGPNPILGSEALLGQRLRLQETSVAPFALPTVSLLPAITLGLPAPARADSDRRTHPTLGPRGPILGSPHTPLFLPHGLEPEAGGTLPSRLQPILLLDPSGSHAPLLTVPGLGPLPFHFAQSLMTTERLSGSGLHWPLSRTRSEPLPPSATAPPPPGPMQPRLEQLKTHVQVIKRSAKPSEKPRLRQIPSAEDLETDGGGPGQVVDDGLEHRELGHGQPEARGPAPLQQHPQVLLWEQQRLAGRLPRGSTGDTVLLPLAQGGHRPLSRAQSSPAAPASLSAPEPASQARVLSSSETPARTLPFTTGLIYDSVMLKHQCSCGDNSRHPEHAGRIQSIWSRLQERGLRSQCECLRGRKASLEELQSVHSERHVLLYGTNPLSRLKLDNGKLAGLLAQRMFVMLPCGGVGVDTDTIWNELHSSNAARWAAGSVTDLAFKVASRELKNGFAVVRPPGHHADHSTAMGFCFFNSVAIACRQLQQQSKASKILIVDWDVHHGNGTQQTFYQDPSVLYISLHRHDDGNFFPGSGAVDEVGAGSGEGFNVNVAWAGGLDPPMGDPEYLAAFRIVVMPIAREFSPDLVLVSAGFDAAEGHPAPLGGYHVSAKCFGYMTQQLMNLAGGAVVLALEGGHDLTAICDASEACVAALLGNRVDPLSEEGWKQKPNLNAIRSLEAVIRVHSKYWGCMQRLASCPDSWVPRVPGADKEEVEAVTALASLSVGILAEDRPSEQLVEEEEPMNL
The data set is described as follows: Inhibition of human HDAC7 using Boc-Lys(trifluoroacetyl)-AMC as flurogenic substrate.

Another data set is filed under the species Homo sapiens. The data set is described as follows: Selectivity ratio of IC50 for human HDAC9 to IC50 for human HDAC6.
Data set [3] concerns the target T2, Amine oxidase [flavin-containing] B (Homo sapiens, UniProt P27338).
T2 sequence (P27338 whole entry): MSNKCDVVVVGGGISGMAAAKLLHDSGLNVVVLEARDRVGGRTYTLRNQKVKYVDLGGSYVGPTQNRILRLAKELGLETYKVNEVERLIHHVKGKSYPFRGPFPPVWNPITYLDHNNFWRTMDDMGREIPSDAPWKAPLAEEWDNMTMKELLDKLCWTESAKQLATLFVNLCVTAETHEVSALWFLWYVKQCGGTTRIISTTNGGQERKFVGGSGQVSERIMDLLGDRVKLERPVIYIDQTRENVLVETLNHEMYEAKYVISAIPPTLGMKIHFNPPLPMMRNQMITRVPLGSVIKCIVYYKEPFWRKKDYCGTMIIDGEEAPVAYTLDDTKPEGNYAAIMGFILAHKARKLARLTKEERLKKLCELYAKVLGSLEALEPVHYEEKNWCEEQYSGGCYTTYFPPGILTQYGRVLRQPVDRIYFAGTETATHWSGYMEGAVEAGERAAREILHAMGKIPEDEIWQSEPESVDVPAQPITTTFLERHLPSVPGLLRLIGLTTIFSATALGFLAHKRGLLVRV
The data set is described as follows: Inhibition of human full length recombinant MAO-B expressed in insect cells using kynuramine as substrate. Type of data set: cell-based.

For data set [4], the system named is PC-3. The data set is described as follows: Downregulation of LSD1 in human PC-3 cells at 1.25 to 10 uM incubated for 48 hrs by Western blot analysis. Type of data set: functional, cell-based. The conditions noted are these: dose 1.25-10 µM.
For data set [5], the system named is PC-3. The data set is described as follows: Induction of cell death in LSD1 knockdown human PC-3 cells assessed as activation of procaspase-9 at 1.25 to 10 uM by Western blot analysis. Type of data set: functional, cell-based. Conditions: dose 1.25-10 µM.
Data set [6] can be described thus: Clearance in Sprague-Dawley rat at 2 mg/kg, iv administered as single dose through tail vein measured upto 24 hrs post dose by UPLC-MS/MS analysis. Type of data set: ADME, organism-based. Conditions: in vivo.
Data set [7] can be described thus: Volume of distribution at steady state in Sprague-Dawley rat at 2 mg/kg, iv administered as single dose through tail vein measured upto 24 hrs post dose by UPLC-MS/MS analysis. Type of data set: ADME, organism-based. Conditions: in vivo, read-out: Vdss.
Data set [8] can be described thus: AUC (0 to 24 hrs) in Sprague-Dawley rat at 25 mg/kg, po administered once via gavage measured upto 24 hrs post dose by UPLC-MS/MS analysis. Type of data set: ADME, organism-based. The arrangement: dose 25 mg/kg, time < 24 hrs, route po. The conditions noted are these: in vivo.
Data set [9] is described as follows: Oral bioavailability in Sprague-Dawley rat at 25 mg/kg administered once via gavage measured upto 24 hrs post dose by UPLC-MS/MS analysis. Type of data set: ADME, organism-based. Conditions: in vivo.
A short description of data set [10]: Cmax in Sprague-Dawley rat at 25 mg/kg, po formulated using SMEDDS administered once via gavage measured upto 24 hrs post dose by UPLC-MS/MS analysis. Details: dose 25 mg/kg, time < 24 hrs, route po. The conditions noted are these: in vivo. Type of data set: ADME, organism-based.
Data set [11] can be described thus: Metabolic stability in Sprague-Dawley rat hepatocyte assessed as parent compound remaining at 10 uM by LC-MS/MS analysis. Type of data set: ADME, cell-based. Conditions: hepatocytes, read-out: Stability.
A short description of data set [12]: Metabolic stability in Sprague-Dawley rat hepatocyte assessed as parent compound remaining at 10 uM incubated for 30 mins by LC-MS/MS analysis. Type of data set: ADME, cell-based. Conditions: hepatocytes, read-out: Stability.
The nature of data set [13]: Metabolic stability in Sprague-Dawley rat hepatocyte assessed as parent compound remaining at 10 uM incubated for 60 mins by LC-MS/MS analysis. Type of data set: ADME, cell-based. The conditions noted are these: hepatocytes, read-out: Stability.
A short description of data set [14]: Metabolic stability in Sprague-Dawley rat hepatocyte assessed as parent compound remaining at 10 uM incubated for 120 mins by LC-MS/MS analysis. Conditions: hepatocytes, read-out: Stability. Type of data set: ADME, cell-based.
The nature of data set [15]: Metabolic stability in Sprague-Dawley rat hepatocyte assessed as parent compound remaining at 10 uM incubated for 240 mins by LC-MS/MS analysis. Type of data set: ADME, cell-based. The conditions noted are these: hepatocytes, read-out: Stability.
Data set [16] is described as follows: Metabolic stability in Beagle dog hepatocyte assessed as parent compound remaining at 10 uM by LC-MS/MS analysis. Type of data set: ADME, cell-based, Canis lupus familiaris. Conditions: hepatocytes, read-out: Stability.
The nature of data set [17]: Metabolic stability in Beagle dog hepatocyte assessed as parent compound remaining at 10 uM incubated for 240 mins by LC-MS/MS analysis. Type of data set: ADME, cell-based, Canis lupus familiaris. Conditions: hepatocytes, read-out: Stability.
Data set [18] is described as follows: Metabolic stability in human hepatocyte assessed as parent compound remaining at 10 uM by LC-MS/MS analysis. Type of data set: ADME, cell-based. Conditions: hepatocytes, read-out: Stability.
Data set [19] in a line: Metabolic stability in human hepatocyte assessed as parent compound remaining at 10 uM incubated for 120 mins by LC-MS/MS analysis. Type of data set: ADME, cell-based. Conditions: hepatocytes, read-out: Stability.
A short description of data set [20]: Metabolic stability in human hepatocyte assessed as parent compound remaining at 10 uM incubated for 240 mins by LC-MS/MS analysis. Type of data set: ADME, cell-based. Conditions: hepatocytes, read-out: Stability.
Data set [21] is described as follows: Metabolic stability in Sprague-Dawley rat hepatocyte assessed as intrinsic clearance at 10 uM by LC-MS/MS analysis. Type of data set: ADME, cell-based. Conditions: hepatocytes, read-out: CLH.
Data set [22] can be described thus: Metabolic stability in human hepatocyte assessed as intrinsic clearance at 10 uM by LC-MS/MS analysis. Type of data set: ADME, cell-based. Conditions: hepatocytes, read-out: CLH.

The source made the active and inactive calls. The calls are words filed in the database; no cut-off is given here.

Regarding `C#CCN(C)Cc1cccc(NC(=O)CCCCCCC(=O)NO)c1`, the outcome with PC-3 [1], with PC-3 [2], with PC-3 [4] and in the data set with PC-3 [5] was Active. Moreover, the IC50 at Histone deacetylase 7 is above 10 µM; in [3], 67 µM. Further, in the data set listed under Homo sapiens, the Ratio IC50 was above 500. The clearance in [6] is 500 mL/min/kg. Besides, the Vd in data set [7] is 247 L/kg. This compound also yielded an AUC(0-t) at 24 h in data set [8] of 108 ng·h/mL. Also, the bioavailability in data set [9] is 11.8%. Moreover, the highest level in [10] (Cmax) was 257 ng/mL. The remaining at 10 µM in [11], in data set [16] and in data set [18] was 100% in each case. The remaining at 0.5 h, 10 µM in [12] came out at 72.2%. The remaining at 1 h, 10 µM in data set [13] was found to be 52.5%. Moreover, the remaining at 2 h, 10 µM amounted to 35.9% in data set [14] and 95.5% in data set [19]. For the same compound, the remaining at 4 h, 10 µM in data set [15] was determined as 15.9%; in [17], 46.6%; in [20], 83.3%. The CLint scaled at 10 µM is 90.2 mL/min/kg in data set [21] and 9.78 mL/min/kg in [22].
